EP0908457B1, “3-(1,2-benzisothiazol- and isoxazol-5-Y1)-2,4(1H,3H)-pyrimidinedione or thione and 3-(1,2-benzisothiazol- and isoxazol-5-y1)-4(3H)-pyrimidinone or thione herbicidal agents” (BASF AKTIENGESELLSCHAFT, priority 1997, dated 1999)

Tests used:
[1] = system: Echinochloa oryzoides (Ard.) Fritsch.; assay: Preemergence weed control under flooded paddy conditions, ECHORC (Watergrass (Calif.)); assay type: in vivo; conditions: preemergence, flooded paddy, rated three to four weeks after treatment
Sagittaria pygmaea, L. = assay: Preemergence weed control under flooded paddy conditions, SAGPY (Arrowhead (Pygmaea)); assay type: in vivo; conditions: preemergence, flooded paddy, rated three to four weeks after treatment
Cyperus iria = assay: Preemergence weed control under flooded paddy conditions, CYPIR (Rice Flatsedge); assay type: in vivo; conditions: preemergence, flooded paddy, rated three to four weeks after treatment
[2] = system: Cyperus serotinus, Rottb.; assay: Preemergence weed control under flooded paddy conditions, CYPSE (Flatsedge); assay type: in vivo; conditions: preemergence, rated three to four weeks after treatment
[3] = system: Oryza sativa, (L.) Tebonnet; assay: Rice tolerance to post-transplant applications under flooded paddy conditions (Example 187), ORYSAT (Rice, Tebonnet); conditions: rated three to four weeks after treatment
[4] = system: Monochoria vaginalis, Presl.; assay: Preemergence weed control under flooded paddy conditions, MOOVA (Monochoria); assay type: in vivo; conditions: preemergence, flooded paddy, rated three to four weeks after treatment

CO/N=C/c1nsc2ccc(-n3c(=O)cc(C(F)(F)F)n(C)c3=O)cc12 [Example 277, 1,2-Benzisothiazole-3-carboxaldehyde, 5-[3,6-dihydro-3-methyl-2,6-dioxo-4-(trifluoromethyl)-1(2H)-pyrimidinyl]-, 3-(O-methyloxime), (E)-]
8.0: SAGPY herbicidal effect rating (Sagittaria pygmaea, L.; Rate 0.0620 kg/ha) | ORYSAT herbicidal effect rating ([3]; Rate 0.2500 kg/ha)
8.6: ECHORC herbicidal effect rating ([1]; Rate 0.0620 kg/ha)
5.0: ORYSAT herbicidal effect rating ([3]; Rate 0.0320 kg/ha)
2.0: CYPSE herbicidal effect rating ([2]; Rate 0.0320 kg/ha)
7.0: ECHORC herbicidal effect rating ([1]; Rate 0.0320 kg/ha) | ORYSAT herbicidal effect rating ([3]; Rate 0.0620 kg/ha) | ORYSAT herbicidal effect rating ([3]; Rate 0.1250 kg/ha)
9.0: ECHORC herbicidal effect rating ([1]; Rate 0.1250 kg/ha) | ECHORC herbicidal effect rating ([1]; Rate 0.2500 kg/ha) | ECHORC herbicidal effect rating ([1]; Rate 0.5000 kg/ha) | SAGPY herbicidal effect rating (Sagittaria pygmaea, L.; Rate 0.1250 kg/ha) | SAGPY herbicidal effect rating (Sagittaria pygmaea, L.; Rate 0.2500 kg/ha) | SAGPY herbicidal effect rating (Sagittaria pygmaea, L.; Rate 0.5000 kg/ha) | CYPIR herbicidal effect rating (Cyperus iria; Rate 0.0320 kg/ha) | CYPIR herbicidal effect rating (Cyperus iria; Rate 0.0620 kg/ha) | CYPIR herbicidal effect rating (Cyperus iria; Rate 0.1250 kg/ha) | CYPIR herbicidal effect rating (Cyperus iria; Rate 0.2500 kg/ha) | CYPIR herbicidal effect rating (Cyperus iria; Rate 0.5000 kg/ha) | CYPSE herbicidal effect rating ([2]; Rate 0.0620 kg/ha) | CYPSE herbicidal effect rating ([2]; Rate 0.1250 kg/ha) | CYPSE herbicidal effect rating ([2]; Rate 0.2500 kg/ha) | CYPSE herbicidal effect rating ([2]; Rate 0.5000 kg/ha) | ORYSAT herbicidal effect rating ([3]; Rate 0.5000 kg/ha) | MOOVA herbicidal effect rating ([4]; Rate 0.0320 kg/ha) | MOOVA herbicidal effect rating ([4]; Rate 0.0620 kg/ha) | MOOVA herbicidal effect rating ([4]; Rate 0.1250 kg/ha) | MOOVA herbicidal effect rating ([4]; Rate 0.2500 kg/ha) | MOOVA herbicidal effect rating ([4]; Rate 0.5000 kg/ha)
6.0: SAGPY herbicidal effect rating (Sagittaria pygmaea, L.; Rate 0.0320 kg/ha)

Cn1c(C(F)(F)F)cc(=O)n(-c2ccc3snc(/C=N/O)c3c2)c1=O [Example 278, 1,2-Benzisothiazole-3-carboxaldehyde, 5-[3,6-dihydro-3-methyl-2,6-dioxo-4-(trifluoromethyl)-1(2H)-pyrimidinyl]-, 3-oxime, (E)-]
2.0: SAGPY herbicidal effect rating (Sagittaria pygmaea, L.; Rate 0.2500 kg/ha) | CYPIR herbicidal effect rating (Cyperus iria; Rate 0.0620 kg/ha) | CYPSE herbicidal effect rating ([2]; Rate 0.1250 kg/ha) | ORYSAT herbicidal effect rating ([3]; Rate 0.0320 kg/ha)
8.0: ECHORC herbicidal effect rating ([1]; Rate 0.2500 kg/ha) | ORYSAT herbicidal effect rating ([3]; Rate 0.5000 kg/ha) | MOOVA herbicidal effect rating ([4]; Rate 0.0620 kg/ha)
7.0: CYPIR herbicidal effect rating (Cyperus iria; Rate 0.1250 kg/ha) | ORYSAT herbicidal effect rating ([3]; Rate 0.2500 kg/ha)
4.0: CYPSE herbicidal effect rating ([2]; Rate 0.2500 kg/ha) | ORYSAT herbicidal effect rating ([3]; Rate 0.1250 kg/ha)
6.0: MOOVA herbicidal effect rating ([4]; Rate 0.0320 kg/ha)
7.4: ECHORC herbicidal effect rating ([1]; Rate 0.1250 kg/ha)
9.0: ECHORC herbicidal effect rating ([1]; Rate 0.5000 kg/ha) | SAGPY herbicidal effect rating (Sagittaria pygmaea, L.; Rate 0.5000 kg/ha) | CYPIR herbicidal effect rating (Cyperus iria; Rate 0.2500 kg/ha) | CYPIR herbicidal effect rating (Cyperus iria; Rate 0.5000 kg/ha) | CYPSE herbicidal effect rating ([2]; Rate 0.5000 kg/ha) | MOOVA herbicidal effect rating ([4]; Rate 0.1250 kg/ha) | MOOVA herbicidal effect rating ([4]; Rate 0.2500 kg/ha) | MOOVA herbicidal effect rating ([4]; Rate 0.5000 kg/ha)
0.0: ECHORC herbicidal effect rating ([1]; Rate 0.0320 kg/ha) | SAGPY herbicidal effect rating (Sagittaria pygmaea, L.; Rate 0.0320 kg/ha) | SAGPY herbicidal effect rating (Sagittaria pygmaea, L.; Rate 0.0620 kg/ha) | SAGPY herbicidal effect rating (Sagittaria pygmaea, L.; Rate 0.1250 kg/ha) | CYPIR herbicidal effect rating (Cyperus iria; Rate 0.0320 kg/ha) | CYPSE herbicidal effect rating ([2]; Rate 0.0320 kg/ha) | CYPSE herbicidal effect rating ([2]; Rate 0.0620 kg/ha)
3.0: ORYSAT herbicidal effect rating ([3]; Rate 0.0620 kg/ha)
6.1: ECHORC herbicidal effect rating ([1]; Rate 0.0620 kg/ha)

COC(=O)/C=C/c1nsc2ccc(-n3c(=O)cc(C(F)(F)F)n(C)c3=O)cc12 [Example 279, 1,2-Benzisothiazole-3-acrylic acid, 5-[3,6-dihydro-3-methyl-2,6-dioxo-4-(trifluoromethyl)-1(2H)-pyrimidinyl]-, methyl ester, (E)-]
5.0: CYPSE herbicidal effect rating ([2]; Rate 0.5000 kg/ha)
0.0: ECHORC herbicidal effect rating ([1]; Rate 0.0320 kg/ha) | SAGPY herbicidal effect rating (Sagittaria pygmaea, L.; Rate 0.0320 kg/ha) | SAGPY herbicidal effect rating (Sagittaria pygmaea, L.; Rate 0.0620 kg/ha) | SAGPY herbicidal effect rating (Sagittaria pygmaea, L.; Rate 0.1250 kg/ha) | CYPIR herbicidal effect rating (Cyperus iria; Rate 0.0320 kg/ha) | CYPIR herbicidal effect rating (Cyperus iria; Rate 0.0620 kg/ha) | CYPSE herbicidal effect rating ([2]; Rate 0.0320 kg/ha) | CYPSE herbicidal effect rating ([2]; Rate 0.0620 kg/ha) | CYPSE herbicidal effect rating ([2]; Rate 0.1250 kg/ha)
6.1: ECHORC herbicidal effect rating ([1]; Rate 0.1250 kg/ha)
4.0: SAGPY herbicidal effect rating (Sagittaria pygmaea, L.; Rate 0.2500 kg/ha) | ORYSAT herbicidal effect rating ([3]; Rate 0.1250 kg/ha) | ORYSAT herbicidal effect rating ([3]; Rate 0.2500 kg/ha)
6.0: ECHORC herbicidal effect rating ([1]; Rate 0.2500 kg/ha) | CYPIR herbicidal effect rating (Cyperus iria; Rate 0.2500 kg/ha) | ORYSAT herbicidal effect rating ([3]; Rate 0.5000 kg/ha)
3.0: ORYSAT herbicidal effect rating ([3]; Rate 0.0620 kg/ha)
7.0: ECHORC herbicidal effect rating ([1]; Rate 0.5000 kg/ha)
8.0: MOOVA herbicidal effect rating ([4]; Rate 0.1250 kg/ha)
9.0: SAGPY herbicidal effect rating (Sagittaria pygmaea, L.; Rate 0.5000 kg/ha) | CYPIR herbicidal effect rating (Cyperus iria; Rate 0.5000 kg/ha) | MOOVA herbicidal effect rating ([4]; Rate 0.2500 kg/ha) | MOOVA herbicidal effect rating ([4]; Rate 0.5000 kg/ha)
5.7: ECHORC herbicidal effect rating ([1]; Rate 0.0620 kg/ha)
2.0: CYPIR herbicidal effect rating (Cyperus iria; Rate 0.1250 kg/ha) | ORYSAT herbicidal effect rating ([3]; Rate 0.0320 kg/ha)

C#CCOC(=O)COc1c(-c2nsc3ccc(-n4c(=O)cc(C(F)(F)F)n(C)c4=O)cc23)ccc(C)c1C [Example 280, Acetic acid, {{6-[5-[3,6-dihydro-3-methyl-2,6-dioxo-4-(trifluoromethyl)-1(2H)-pyrimidinyl]-1,2-benzisothiazol-3-yl}-2,3-xylyl}oxy}-, 2-propynyl ester]
5.7: ECHORC herbicidal effect rating ([1]; Rate 0.0620 kg/ha)
0.0: ECHORC herbicidal effect rating ([1]; Rate 0.0320 kg/ha) | SAGPY herbicidal effect rating (Sagittaria pygmaea, L.; Rate 0.0320 kg/ha) | SAGPY herbicidal effect rating (Sagittaria pygmaea, L.; Rate 0.0620 kg/ha) | CYPSE herbicidal effect rating ([2]; Rate 0.0320 kg/ha) | CYPSE herbicidal effect rating ([2]; Rate 0.0620 kg/ha) | CYPSE herbicidal effect rating ([2]; Rate 0.1250 kg/ha)
8.0: CYPIR herbicidal effect rating (Cyperus iria; Rate 0.1250 kg/ha) | ORYSAT herbicidal effect rating ([3]; Rate 0.2500 kg/ha)
9.0: ECHORC herbicidal effect rating ([1]; Rate 0.2500 kg/ha) | ECHORC herbicidal effect rating ([1]; Rate 0.5000 kg/ha) | SAGPY herbicidal effect rating (Sagittaria pygmaea, L.; Rate 0.2500 kg/ha) | SAGPY herbicidal effect rating (Sagittaria pygmaea, L.; Rate 0.5000 kg/ha) | CYPIR herbicidal effect rating (Cyperus iria; Rate 0.2500 kg/ha) | CYPIR herbicidal effect rating (Cyperus iria; Rate 0.5000 kg/ha) | ORYSAT herbicidal effect rating ([3]; Rate 0.5000 kg/ha) | MOOVA herbicidal effect rating ([4]; Rate 0.0320 kg/ha) | MOOVA herbicidal effect rating ([4]; Rate 0.0620 kg/ha) | MOOVA herbicidal effect rating ([4]; Rate 0.1250 kg/ha) | MOOVA herbicidal effect rating ([4]; Rate 0.2500 kg/ha) | MOOVA herbicidal effect rating ([4]; Rate 0.5000 kg/ha)
7.0: ORYSAT herbicidal effect rating ([3]; Rate 0.1250 kg/ha)
3.0: CYPSE herbicidal effect rating ([2]; Rate 0.5000 kg/ha) | ORYSAT herbicidal effect rating ([3]; Rate 0.0320 kg/ha) | ORYSAT herbicidal effect rating ([3]; Rate 0.0620 kg/ha)
7.6: ECHORC herbicidal effect rating ([1]; Rate 0.1250 kg/ha)
6.0: CYPIR herbicidal effect rating (Cyperus iria; Rate 0.0620 kg/ha)
2.0: SAGPY herbicidal effect rating (Sagittaria pygmaea, L.; Rate 0.1250 kg/ha) | CYPIR herbicidal effect rating (Cyperus iria; Rate 0.0320 kg/ha) | CYPSE herbicidal effect rating ([2]; Rate 0.2500 kg/ha)

Cn1c(C(F)(F)F)cc(=O)n(-c2ccc3snc(-c4ccc(OCC(=O)O)cc4)c3c2)c1=O [Example 281, Acetic acid, {p-{5-[3,6-dihydro-3-methyl-2,6-dioxo-4-(trifluoromethyl)-1(2H)-pyrimidinyl]-1,2-benzisothiazol-3-yl}phenoxy}-]
5.9: ECHORC herbicidal effect rating ([1]; Rate 0.0620 kg/ha)
7.1: ECHORC herbicidal effect rating ([1]; Rate 0.1250 kg/ha)
9.0: ECHORC herbicidal effect rating ([1]; Rate 0.2500 kg/ha) | SAGPY herbicidal effect rating (Sagittaria pygmaea, L.; Rate 0.5000 kg/ha) | CYPIR herbicidal effect rating (Cyperus iria; Rate 0.1250 kg/ha) | CYPIR herbicidal effect rating (Cyperus iria; Rate 0.2500 kg/ha) | CYPIR herbicidal effect rating (Cyperus iria; Rate 0.5000 kg/ha) | CYPSE herbicidal effect rating ([2]; Rate 0.0320 kg/ha) | CYPSE herbicidal effect rating ([2]; Rate 0.0620 kg/ha) | CYPSE herbicidal effect rating ([2]; Rate 0.1250 kg/ha) | CYPSE herbicidal effect rating ([2]; Rate 0.2500 kg/ha) | CYPSE herbicidal effect rating ([2]; Rate 0.5000 kg/ha) | MOOVA herbicidal effect rating ([4]; Rate 0.0320 kg/ha) | MOOVA herbicidal effect rating ([4]; Rate 0.0620 kg/ha) | MOOVA herbicidal effect rating ([4]; Rate 0.1250 kg/ha) | MOOVA herbicidal effect rating ([4]; Rate 0.2500 kg/ha) | MOOVA herbicidal effect rating ([4]; Rate 0.5000 kg/ha)
7.0: ECHORC herbicidal effect rating ([1]; Rate 0.5000 kg/ha)
0.0: ECHORC herbicidal effect rating ([1]; Rate 0.0320 kg/ha) | SAGPY herbicidal effect rating (Sagittaria pygmaea, L.; Rate 0.0320 kg/ha) | SAGPY herbicidal effect rating (Sagittaria pygmaea, L.; Rate 0.0620 kg/ha) | ORYSAT herbicidal effect rating ([3]; Rate 0.0320 kg/ha)
4.0: CYPIR herbicidal effect rating (Cyperus iria; Rate 0.0320 kg/ha) | ORYSAT herbicidal effect rating ([3]; Rate 0.1250 kg/ha) | ORYSAT herbicidal effect rating ([3]; Rate 0.5000 kg/ha)
6.0: ORYSAT herbicidal effect rating ([3]; Rate 0.2500 kg/ha)
2.0: SAGPY herbicidal effect rating (Sagittaria pygmaea, L.; Rate 0.1250 kg/ha) | ORYSAT herbicidal effect rating ([3]; Rate 0.0620 kg/ha)
8.0: SAGPY herbicidal effect rating (Sagittaria pygmaea, L.; Rate 0.2500 kg/ha) | CYPIR herbicidal effect rating (Cyperus iria; Rate 0.0620 kg/ha)
